Measured values from patent publication US7208515B2, “Diphenylmethyl compounds useful as muscarinic receptor antagonists” (Theravance, Inc., priority 2004, dated 2007).

Tests used:
[1] = tested on: MCh-induced depressor responses; test: Methacholine-induced depressor responses in conscious guinea pigs; type: in vivo; settings: guinea pig, inhalation
Text: Methacholine-Induced Depressor Responses in Conscious Guinea Pigs
Healthy, adult, male Sprague-Dawley guinea pigs (Harlan, Indianapolis, Ind.), weighing between 200 and 300 g were used in these studies. Under isoflurane anesthesia (to effect), animals were instrumented with common carotid artery and jugular vein catheters (PE-50 tubing). The catheters were exteriorized utilizing a subcutaneous tunnel to the subscapular area. All surgical incisions were sutured with 4-0 Ethicon Silk and the catheters locked with heparin (1000 units/mL). Each animal was administered saline (3 mL, SC) at the end of surgery as well as buprenorphine (0.05 mg/kg, IM). Animals were allowed to recover on a heating pad before being returned to their holding rooms.
Approximately 18 to 20 hours following surgery, the animals were weighed and the carotid artery catheter on each animal was connected to a transducer for recording arterial pressure. Arterial pressure and heart rate was recorded using a Biopac MP-100 Acquisition System. Animals were allowed to acclimate and stabilize for a period of 20 minutes.
Each animal was challenged with MCh (0.3 mg/kg, IV) administered through the jugular venous line and the cardiovascular response was monitored for 10 minutes. […] At 1.5 and 24 h post-dosing, the animals were re-challenged with MCh (0.3 mg/kg, IV) and the hemodynamic response was determined. […]

[2] = target: T1, hM2 receptor (CHO-K1 cells) (Homo sapiens, UniProt P08172); test: Blockade of agonist-mediated [35S]GTPγS binding; type: biochemical; settings: CHO-K1 cells expressing the hM2 receptor; read-out: Ki value for blockade of oxotremorine-stimulated [35S]GTPγS binding
T1 construct: expressed in transfected cells; host or cells: CHO-K1 cells
T1 sequence (P08172 1-466): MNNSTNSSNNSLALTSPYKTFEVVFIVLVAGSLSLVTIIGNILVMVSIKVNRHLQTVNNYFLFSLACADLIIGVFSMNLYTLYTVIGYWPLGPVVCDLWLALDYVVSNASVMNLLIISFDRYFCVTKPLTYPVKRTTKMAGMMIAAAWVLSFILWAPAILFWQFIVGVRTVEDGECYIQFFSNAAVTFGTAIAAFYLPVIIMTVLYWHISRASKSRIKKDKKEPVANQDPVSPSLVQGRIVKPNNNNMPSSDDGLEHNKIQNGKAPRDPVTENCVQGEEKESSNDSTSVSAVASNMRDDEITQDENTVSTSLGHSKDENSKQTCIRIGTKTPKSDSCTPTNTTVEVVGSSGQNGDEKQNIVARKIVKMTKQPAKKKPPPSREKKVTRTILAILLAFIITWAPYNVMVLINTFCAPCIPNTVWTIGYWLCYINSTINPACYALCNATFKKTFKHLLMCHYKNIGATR
Method: B. Blockade of Agonist-Mediated [^35S]GTPγS Binding
In a second functional assay, the functional potency of test compounds can be determined by measuring the ability of the compounds to block oxotremorine-stimulated [^35S]GTPγS binding in CHO-K1 cells expressing the hM2 receptor.
At the time of use, frozen membranes were thawed and then diluted in assay buffer with a final target tissue concentration of 5–10 μg protein per well. The membranes were briefly homogenized using a Polytron PT-2100 tissue disrupter and then added to the assay plates.
The EC90 value (effective concentration for 90% maximal response) for stimulation of [^35S]GTPγS binding by the agonist oxotremorine was determined in each experiment.
To determine the ability of a test compound to inhibit oxotremorine-stimulated [^35S]GTPγS binding, the following was added to each well of 96 well plates: 25 μL of assay buffer with [^35S]GTPγS (0.4 nM), 25 μL of oxotremorine(EC90) and GDP (3 μM), 25 μL of diluted test compound and 25 μL CHO cell membranes expressing the hM2 receptor. […] Microscint-20 scintillation liquid (50 μL) was added to each well, and each plate was sealed and radioactivity counted on a topcounter (PerkinElmer). Data were analyzed by nonlinear regression analysis with the GraphPad Prism Software package (GraphPad Software, Inc., San Diego, Calif.) using the non-linear regression, one-site competition equation. […]

CNCC(=O)NCCCCCN1CC[C@@H](C(C(N)=O)(c2ccccc2)c2ccccc2)C1 [Example 1]
apparent lung-selectivity index (ratio of anti-depressor ID50 to bronchoprotective ID50) [1]: greater than 5 | Ki [2]: < 100 nM
